The record followed here is the supplement of paper PMC10307832.

Experiment in all cases: relative viability (nuclei count vs DMSO), 5 days (fraction); higher = more cells survive
Compound in experiment [1]: CN(C)CC1=CC(=CC=C1)N=C(C2=CC=CC=C2)C3=C(NC4=C3C=CC(=C4)C(=O)N(C)C)O + CC1(C)CCC(c2ccc(Cl)cc2)=C(CN2CCN(c3ccc(C(=O)NS(=O)(=O)c4ccc(N[C@H](CCN5CCOCC5)CSc5ccccc5)c(S(=O)(=O)C(F)(F)F)c4)cc3)CC2)C1 [Navitoclax] (partner 0.5 µM)
The essentials: (§1)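 Lung cancer cell lines were pin-tool dosed in 1536-well plates on the day after seeding, with either a lone drug or a fixed anchor-drug dose plus five library-drug doses (not always all listed) in √10 steps. Nuclei were counted on 4× images after 5 days. Relative viability is the ratio of treated-well to vehicle-well nuclei counts, with each value a median of duplicate plates.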

Compound in experiment [2]: CN(C)CC1=CC(=CC=C1)N=C(C2=CC=CC=C2)C3=C(NC4=C3C=CC(=C4)C(=O)N(C)C)O + Cc1cc(Nc2cc(N3CCN(C)CC3)nc(Sc3ccc(NC(=O)C4CC4)cc3)n2)n[nH]1 [Tozasertib] (partner 0.1 µM)
The essentials:
as §1

Compound in experiment [3]: CN(C)CC1=CC(=CC=C1)N=C(C2=CC=CC=C2)C3=C(NC4=C3C=CC(=C4)C(=O)N(C)C)O + N=C(N)NC(=N)NCCc1ccccc1 [Phenformin] (partner 250 µM)
The essentials:
as §1

Compound in experiment [4]: CN(C)CC1=CC(=CC=C1)N=C(C2=CC=CC=C2)C3=C(NC4=C3C=CC(=C4)C(=O)N(C)C)O
The essentials: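 Five library-drug doses, separated by factors of √10, were pinned into 1536-well plates holding lung cancer cell lines after an overnight stay at 37 °C. Cells were fixed, permeabilised and Hoechst-stained in one step after 5 days without medium change, then imaged at 4×. Viability compares treated-well with vehicle-well nuclei, counted in MetaXpress, as a median across plates. Passing plates had control CV below 25% and at least one doubling.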

As to PC-14, the relative viability came out at 1.08 in experiment [1] (first compound 0.08 µM); 1.03 in experiment [1] (first compound 0.253 µM); 0.965 in experiment [1] (first compound 0.8 µM); 1.03 in experiment [1] (first compound 2.53 µM); 1.07 in experiment [1] (first compound 8 µM); 0.564 in experiment [2] (first compound 0.08 µM). Moreover, the relative viability in experiment [2] (first compound 0.253 µM) stood at 0.604; in experiment [2] (first compound 0.8 µM), 0.618; in experiment [2] (first compound 2.53 µM), 0.531; in experiment [2] (first compound 8 µM), 0.649; in experiment [3] (first compound 0.08 µM), 0.572; in experiment [3] (first compound 0.253 µM) it was 0.545. In addition, the relative viability in experiment [3] (first compound 0.8 µM) was 0.617; in experiment [3] (first compound 2.53 µM), 0.602; in experiment [3] (first compound 8 µM), 0.734; in experiment [4] (0.08 µM), 1.12; in experiment [4] (0.253 µM), 0.951; in experiment [4] (0.8 µM) it was 1.08. Further, the relative viability in experiment [4] (2.53 µM) was 0.988; in experiment [4] (8 µM) it was 1.02.

Turning to RERF-LC-KJ, the relative viability in experiment [1] (first compound 0.08 µM) turned out to be 1.06; in experiment [1] (first compound 0.253 µM), 0.645; in experiment [1] (first compound 0.8 µM) it was 0.833; in experiment [1] (first compound 2.53 µM), 1.03; in experiment [1] (first compound 8 µM), 0.866; in experiment [2] (first compound 0.08 µM), 0.494. Further, the relative viability in experiment [2] (first compound 0.253 µM) was 0.493; in experiment [2] (first compound 0.8 µM), 0.536; in experiment [2] (first compound 2.53 µM), 0.523; in experiment [2] (first compound 8 µM), 0.408; in experiment [3] (first compound 0.08 µM), 0.434; in experiment [3] (first compound 0.253 µM) it was 0.424. Also, the relative viability in experiment [3] (first compound 0.8 µM) amounted to 0.412; in experiment [3] (first compound 2.53 µM), 0.409; in experiment [3] (first compound 8 µM), 0.398; in experiment [4] (0.08 µM), 1.08; in experiment [4] (0.253 µM), 0.992; in experiment [4] (0.8 µM), 0.907. The relative viability in experiment [4] (2.53 µM) was 0.982; in experiment [4] (8 µM), 0.996.

Consider SK-LU-1, for which the relative viability in experiment [1] (first compound 0.08 µM) came out at 1.05; in experiment [1] (first compound 0.253 µM) it was 0.898; in experiment [1] (first compound 0.8 µM), 0.778; in experiment [1] (first compound 2.53 µM), 0.651; in experiment [1] (first compound 8 µM) it was 0.791; in experiment [2] (first compound 0.08 µM), 0.262. In addition, the relative viability in experiment [2] (first compound 0.253 µM) amounted to 0.327; in experiment [2] (first compound 0.8 µM) it was 0.33; in experiment [2] (first compound 2.53 µM), 0.351; in experiment [2] (first compound 8 µM), 0.295; in experiment [3] (first compound 0.08 µM), 0.41; in experiment [3] (first compound 0.253 µM), 0.573. Also, the relative viability in experiment [3] (first compound 0.8 µM) was 0.597; in experiment [3] (first compound 2.53 µM), 0.473; in experiment [3] (first compound 8 µM), 0.39; in experiment [4] (0.08 µM), 1.04; in experiment [4] (0.253 µM), 1.02; in experiment [4] (0.8 µM), 0.996. Moreover, the relative viability in experiment [4] (2.53 µM) turned out to be 0.993; in experiment [4] (8 µM) it was 0.866.

Regarding SK-MES-1, the relative viability in experiment [1] (first compound 0.08 µM) came to 1.25; in experiment [1] (first compound 0.253 µM), 1.26; in experiment [1] (first compound 0.8 µM) it was 1.09; in experiment [1] (first compound 2.53 µM) it was 1.15; in experiment [1] (first compound 8 µM), 1.1; in experiment [2] (first compound 0.08 µM), 0.846. Moreover, the relative viability was found to be 0.944 in experiment [2] (first compound 0.253 µM); 0.892 in experiment [2] (first compound 0.8 µM); 0.849 in experiment [2] (first compound 2.53 µM); 0.824 in experiment [2] (first compound 8 µM); 0.646 in experiment [3] (first compound 0.08 µM); 0.597 in experiment [3] (first compound 0.253 µM). Further, the relative viability was 0.645 in experiment [3] (first compound 0.8 µM); 0.612 in experiment [3] (first compound 2.53 µM); 0.522 in experiment [3] (first compound 8 µM); 1 in experiment [4] (0.08 µM); 0.993 in experiment [4] (0.253 µM); 0.934 in experiment [4] (0.8 µM). The relative viability was found to be 0.938 in experiment [4] (2.53 µM) and 0.914 in experiment [4] (8 µM).

In the case of SW 1573, the relative viability in experiment [1] (first compound 0.08 µM) came to 1.01; in experiment [1] (first compound 0.253 µM) it was 0.822; in experiment [1] (first compound 0.8 µM), 0.844; in experiment [1] (first compound 2.53 µM) it was 0.906; in experiment [1] (first compound 8 µM), 1.01; in experiment [2] (first compound 0.08 µM), 0.292. Also, the relative viability was determined as 0.172 in experiment [2] (first compound 0.253 µM); 0.149 in experiment [2] (first compound 0.8 µM); 0.176 in experiment [2] (first compound 2.53 µM); 0.152 in experiment [2] (first compound 8 µM); 0.322 in experiment [3] (first compound 0.08 µM); 0.31 in experiment [3] (first compound 0.253 µM). The relative viability came out at 0.378 in experiment [3] (first compound 0.8 µM); 0.294 in experiment [3] (first compound 2.53 µM); 0.31 in experiment [3] (first compound 8 µM); 0.983 in experiment [4] (0.08 µM); 1.08 in experiment [4] (0.253 µM); 0.978 in experiment [4] (0.8 µM). Besides, the relative viability in experiment [4] (2.53 µM) stood at 0.935; in experiment [4] (8 µM) it was 0.853.

On to UMC-11, for which the relative viability in experiment [1] (first compound 0.08 µM) was determined as 0.357; in experiment [1] (first compound 0.253 µM), 0.269; in experiment [1] (first compound 0.8 µM) it was 0.264; in experiment [1] (first compound 2.53 µM), 0.328; in experiment [1] (first compound 8 µM), 0.32; in experiment [2] (first compound 0.08 µM), 0.202. Besides, the relative viability in experiment [2] (first compound 0.253 µM) was 0.192; in experiment [2] (first compound 0.8 µM) it was 0.216; in experiment [2] (first compound 2.53 µM), 0.183; in experiment [2] (first compound 8 µM) it was 0.216; in experiment [3] (first compound 0.08 µM), 0.332; in experiment [3] (first compound 0.253 µM) it was 0.311. Also, the relative viability was found to be 0.309 in experiment [3] (first compound 0.8 µM); 0.301 in experiment [3] (first compound 2.53 µM); 0.253 in experiment [3] (first compound 8 µM); 1.05 in experiment [4] (0.08 µM); 0.934 in experiment [4] (0.253 µM); 0.98 in experiment [4] (0.8 µM). Further, the relative viability stood at 0.924 in experiment [4] (2.53 µM) and 0.957 in experiment [4] (8 µM).
